The assay has as its target α-amylase (EC 3.2.1.1). Nature of the assay: α-amylase activity kit, colorimetric at […] nm. Type of assay: biochemical.

What is called IC50 is the concentration that gives 50% inhibition. `O=C(/C=C/c1ccc(O)c(O)c1)O[C@@H]1C[C@@](O)(C(=O)O)C[C@@H](O)[C@@H]1O` [neochlorogenic acid] gave a 50% inhibitory concentration (IC50) of 230 µM.

Turning to `COc1cc(C(=O)O)ccc1O` [vanillic acid], the IC50 is 330 µM.

The record behind these values is article PMC8919051, “Metabolome and Whole-Transcriptome Analyses Reveal the Molecular Mechanisms Underlying Hypoglycemic Nutrient Metabolites Biosynthesis in Cyclocarya paliurus Leaves During Different Harvest Stages” (Frontiers in Nutrition, 2022).
